Assay results from publication PMC3040889, “Synthesis and Biological Evaluation of Delavayin-C” (Indian Journal of Pharmaceutical Sciences, 2008).
Residues, ends and D or L forms follow the SMILES beside them.

Key:
Format in all cases: cell-based
[1] = system: Bacillus subtilis; experiment: microbe, parasite or virus in culture; details: disc diffusion, 50 μg/ml
Protocol: (§1) The synthesized cyclic heptapeptide was screened in vitro for its antibacterial and antifungal activity by using disc diffusion method and tube dilution technique. The antibacterial activity was determined against four bacterial species (B. subtilis, S. aureus, E. coli and P. aeruginosa) and antifungal activity against Candida albican. In the disc diffusion method, the activity studies were carried out according to modified Kirby-Bauer method. Benzyl penicillin and fluconazole were used as standards against bacterial and fungal strains, respectively at a concentration of 50 μg/ml. Nutrient broth and Sabourds agar were used as a medium and dimethylformamide (DMF) was used as a solvent control for carrying out the activity. After preparation of the disc, allowed to stand for 24 h at 37°. The zone of inhibition, observed around the disks after incubation, was measured.

[2] = system: Escherichia coli; experiment: microbe, parasite or virus in culture; details: disc diffusion, 50 μg/ml
Protocol: as §1

[3] = system: Psuedomonas aeruginosa; experiment: microbe, parasite or virus in culture; details: disc diffusion, 50 μg/ml
Protocol: as §1

[4] = system: Staphylococcus aureus; experiment: microbe, parasite or virus in culture; details: disc diffusion, 50 μg/ml
Protocol: as §1

[5] = system: Candida albicans; experiment: microbe, parasite or virus in culture; details: disc diffusion, 50 μg/ml
Protocol: as §1

[6] = system: Bacillus subtilis; experiment: tube dilution technique for minimum inhibitory concentration; design: key: (+) indicates presence of growth (no activity); –: absence of growth; details: B. subtilis, nutrient broth, 37° for 24 h, turbidity
Protocol: (§2) Compound inhibiting growth of microorganisms was further tested for minimum inhibitory concentration (MIC). A solution of the compound was prepared in DMF and a series of doubling dilutions prepared with sterile pipettes. To each of a series of sterile stoppered test tubes, a standard volume of nutrient broth medium was added. A control tube containing no antimicrobial agent was included. The inoculum consisting of an overnight broth culture of microorganisms was added to separate tubes. The tubes were incubated at 37° for 24 h and examined for turbidity. The tube with highest dilution showing no turbidity was the one containing compound with MIC.

[7] = system: Escherichia coli; experiment: as above; design: key: (+) indicates presence of growth (no activity); –: absence of growth; details: E. coli, nutrient broth, 37° for 24 h, turbidity
Protocol: as §2

[8] = system: Psuedomonas aeruginosa; experiment: as above; design: key: (+) indicates presence of growth (no activity); –: absence of growth; details: P. aeruginosa, nutrient broth, 37° for 24 h, turbidity
Protocol: as §2

[9] = system: Staphylococcus aureus; experiment: as above; design: key: (+) indicates presence of growth (no activity); –: absence of growth; details: S. auereus, nutrient broth, 37° for 24 h, turbidity
Protocol: as §2

[10] = system: Candida albicans; experiment: as above; design: key: (+) indicates presence of growth (no activity); –: absence of growth; details: C. albicans, broth medium, 37° for 24 h, turbidity
Protocol: as §2

[11] = 24 h at 37°, DMF solvent control

Compound: CC1(C)S[C@@H]2[C@H](NC(=O)Cc3ccccc3)C(=O)N2[C@H]1C(=O)O [Benzyl Penicillin, Benzyl penicillin, reference compound]
- zone of inhibition at 50 µg/mL ([1]; Bacillus subtilis, 24 h at 37°, DMF solvent control, read-out: Diameter of zone of inhibition, B. Subtilis): 15 mm
- zone of inhibition at 50 µg/mL ([2]; Escherichia coli, 24 h at 37°, DMF solvent control, read-out: Diameter of zone of inhibition, E. coli): 16 mm
- zone of inhibition at 50 µg/mL ([3]; Pseudomonas aeruginosa, 24 h at 37°, DMF solvent control, read-out: Diameter of zone of inhibition, P. aeruginosa): 17 mm
- zone of inhibition at 50 µg/mL ([4]; Staphylococcus aureus, 24 h at 37°, DMF solvent control, read-out: Diameter of zone of inhibition, S. auereus): 25 mm
- Diameter of zone of inhibition, C. albicans [5, 11]: -

Compound: CC(C)[C@@H]1NC(=O)[C@@H]2CCCN2C(=O)[C@H](Cc2ccc(O)cc2)NC(=O)[C@H](Cc2ccc(O)cc2)NC(=O)[C@H](Cc2ccc(O)cc2)NC(=O)CNC(=O)[C@@H]2CCCN2C1=O [Compound, delavayin-C, cyclo(gly-tyr-tyr-tyr-pro-val-pro)] (cyclo(GYYYPVP))
- activity against B. subtilis when compared with standard drug benzyl penicillin (in words) [1]: moderate activity
- Diameter of zone of inhibition, B. Subtilis [1, 11]: 15 mm
- activity against E. coli when compared with standard drug benzyl penicillin (in words) [2]: less activity
- Diameter of zone of inhibition, E. coli [2, 11]: 10 mm
- activity against P. aeruginosa when compared with standard drug benzyl penicillin (in words) [3]: less activity
- Diameter of zone of inhibition, P. aeruginosa [3, 11]: 11 mm
- activity against S. aureus when compared with standard drug benzyl penicillin (in words) [4]: moderate activity
- Diameter of zone of inhibition, S. auereus [4, 11]: 21 mm
- inhibition of growth against Candida albicans (in words) [5]: moderate inhibition of growth
- Diameter of zone of inhibition, C. albicans [5, 11]: 18 mm
- Presence or absence of growth ([6]; 1.56 μg/ml): +
- Presence or absence of growth ([6]; 3.13 μg/ml): +
- Presence or absence of growth ([6]; 6.25 μg/ml): +
- Presence or absence of growth ([6]; 12.5 μg/ml): +
- Presence or absence of growth ([6]; 25 μg/ml): +
- Presence or absence of growth ([6]; 50 μg/ml): –
- Presence or absence of growth ([6]; 100 μg/ml): –
- Presence or absence of growth ([7]; 1.56 μg/ml): +
- Presence or absence of growth ([7]; 3.13 μg/ml): +
- Presence or absence of growth ([7]; 6.25 μg/ml): +
- Presence or absence of growth ([7]; 12.5 μg/ml): +
- Presence or absence of growth ([7]; 25 μg/ml): +
- Presence or absence of growth ([7]; 50 μg/ml): +
- Presence or absence of growth ([7]; 100 μg/ml): –
- Presence or absence of growth ([8]; 1.56 μg/ml): +
- Presence or absence of growth ([8]; 3.13 μg/ml): +
- Presence or absence of growth ([8]; 6.25 μg/ml): +
- Presence or absence of growth ([8]; 12.5 μg/ml): +
- Presence or absence of growth ([8]; 25 μg/ml): +
- Presence or absence of growth ([8]; 50 μg/ml): +
- Presence or absence of growth ([8]; 100 μg/ml): –
- Presence or absence of growth ([9]; 1.56 μg/ml): +
- Presence or absence of growth ([9]; 3.13 μg/ml): +
- Presence or absence of growth ([9]; 6.25 μg/ml): +
- Presence or absence of growth ([9]; 12.5 μg/ml): +
- Presence or absence of growth ([9]; 25 μg/ml): +
- Presence or absence of growth ([9]; 50 μg/ml): +
- Presence or absence of growth ([10]; 1.56 μg/ml): +
- Presence or absence of growth ([10]; 3.13 μg/ml): +
- Presence or absence of growth ([10]; 6.25 μg/ml): +
- Presence or absence of growth ([10]; 12.5 μg/ml): +
- Presence or absence of growth ([10]; 25 μg/ml): +
- Presence or absence of growth ([10]; 50 μg/ml): –
- Presence or absence of growth ([10]; 100 μg/ml): –

Compound: OC(Cn1cncn1)(Cn1cncn1)c1ccc(F)cc1F [Fluconazole, fluconazole, reference compound]
- Diameter of zone of inhibition, B. Subtilis [1, 11]: -
- Diameter of zone of inhibition, E. coli [2, 11]: -
- Diameter of zone of inhibition, P. aeruginosa [3, 11]: -
- Diameter of zone of inhibition, S. auereus [4, 11]: -
- zone of inhibition at 50 µg/mL ([5]; Candida albicans, 24 h at 37°, DMF solvent control, read-out: Diameter of zone of inhibition, C. albicans): 20 mm
